≈ marks a conversion by molar mass, not a printed value. Read-outs that look alike come from different tables or passages of the source. Bridge positions count the residues as written; N and C are the ends. Square brackets hold non-standard residues; d marks the D form. Peptide text beside a SMILES is read from it. S5 = C=CCCC[C@](C)(N)C(=O)O
Assays:
[1] = test system: P. aeruginosa; format: cell-based, Pseudomonas aeruginosa; conditions: 20-24 hours at 37° C., no visible bacterial growth
Method: (§1) Antimicrobial Activity Assay: The following microbroth dilution protocol was adapted from CLSI to determine the minimum inhibitory concentration (MIC) of StAMPs. Briefly, Mueller-Hinton broth (MHB) or cation-adjusted Mueller-Hinton broth (MHB II) was prepared and autoclaved. Then, a colony of bacterial cells was picked and grown overnight in broth at 37° C. and then diluted and allowed to grow again for 3-4 hours. Serial dilutions of peptide stocks in water (10 μl) were prepared using clear round-bottom polypropylene 96-well plates. Then 90 μl of bacteria in broth was added to give a final inoculum of 5×10^5 CFU/ml. The plates were then covered with porous tape to reduce evaporation and incubated for 20-24 hours at 37° C. The MIC was the minimum peptide concentration at which no visible bacterial growth was observed.

[2] = test system: A. baumannii; format: cell-based, Acinetobacter baumannii; conditions: 20-24 hours at 37° C., no visible bacterial growth
Method: as §1

[3] = test system: S. aureus; format: cell-based, Staphylococcus aureus; conditions: 20-24 hours at 37° C., no visible bacterial growth
Method: as §1

[4] = 48 hours cytotoxicity assay (CellTiter-Glo), liver toxicity; format: cell-based; conditions: human
Outline: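 HepG2 cells (EMEM, 10% FBS) attached 4 h, then exposed to serial dilutions of StAMPs (from 5 mg/mL water stock) or vehicle for 48 h at 37° C. Viability read by CellTiter-Glo luminescence after 10 min at room temperature.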

[5] = 90 minute cytotoxicity assay (LDH release), renal toxicity; format: cell-based; conditions: human
Outline: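 RPTEC in growth-factor-supplemented MEM were exposed overnight-plated to serial dilutions of StAMPs (from 5 mg/mL water stock) or vehicle for 90 min at 37 °C. Released LDH in medium was measured with LDH reagent for 10 min, absorbance at 490 nm.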

[6] = test system: K. pneumoniae; format: cell-based, Klebsiella pneumoniae; conditions: 20-24 hours at 37° C., no visible bacterial growth
Method: as §1

[7] = test system: E. coli; format: cell-based, Escherichia coli; conditions: 20-24 hours at 37° C., no visible bacterial growth
Method: as §1

Compound | Minimum Inhibitory Concentration (MIC) P. aeruginosa [1] | Minimum Inhibitory Concentration (MIC) A. baumannii [2] | Minimum Inhibitory Concentration (MIC) S. aureus [3] | IC50 at 48 hours ([4]; 48 hours of incubation, CellTiter-Glo, read-out: Inhibitory Concentration at 50% Cytotoxicity (IC50) Human Liver Cells (HepG2)) | IC50 at 90 min ([5]; 90 minutes of incubation, LDH, read-out: Inhibitory Concentration at 50% Cytotoxicity (IC50) Human Renal Proximal Tubule Epithelial Cells (RPTEC)) | Minimum Inhibitory Concentration (MIC) K. pneumoniae [6] | Minimum Inhibitory Concentration (MIC) E. coli [7] | IC50 at 48 hours [4] | IC50 at 90 min [5]
CC[C@H](C)[C@@H]1NC(=O)[C@@](C)(NC(=O)[C@H](CC(C)C)NC(=O)[C@H](CC(N)=O)NC(=O)[C@H](CCCCN)NC(=O)[C@H](CCCCN)NC(=O)[C@H](CCCCN)NC(=O)[C@H](CCCCN)NC(=O)CNC(=O)[C@H](CCCCN)NC(=O)[C@]2(C)CCCC=CCCC[C@](C)(NC(=O)CN)C(=O)N[C@@H](Cc3ccccc3)C(=O)N[C@@H](CO)C(=O)N[C@@H](CCCCN)C(=O)N2)CCCC=CCCC[C@@](C)(C(=O)N[C@@H](CCCCN)C(=O)NCC(N)=O)NC(=O)CNC(=O)[C@H](CO)NC1=O [compound 28] (H-G[S5]FSK[S5]KGKKKKNL[S5]ISG[S5]KG-NH2; staple 2-6, 15-19) | 6 µg/mL | 6 µg/mL | >64 µg/mL | > 200 µg/mL | > 200 µg/mL | >64 µg/mL | 64 µg/mL |  | 
CC[C@H](C)[C@H](NC(=O)CN)C(=O)N[C@@H](Cc1ccccc1)C(=O)N[C@@H](CO)C(=O)N[C@@H](CCCCN)C(=O)N[C@@H](CC(C)C)C(=O)N[C@@]1(C)CCCC=CCCC[C@@](C)(C(=O)N[C@@H](CCCCN)C(=O)N[C@@H](CC(N)=O)C(=O)N[C@@H](CC(C)C)C(=O)N[C@@H](CC(C)C)C(=O)N[C@H](C(=O)N[C@@H](CO)C(=O)NCC(=O)N[C@@H](CC(C)C)C(=O)N[C@@H](CCCCN)C(=O)NCC(N)=O)[C@@H](C)CC)NC(=O)[C@H](CCCCN)NC(=O)[C@H](CCCCN)NC(=O)CNC1=O [compound 40] (H-GIFSKL[S5]GKK[S5]KNLLISGLKG-NH2; staple 7-11) |  |  |  |  |  |  |  | 17 µg/mL (≈ 7.55 µM) | 11 µg/mL (≈ 4.89 µM)
CC[C@H](C)[C@H](NC(=O)CN)C(=O)N[C@@H](Cc1ccccc1)C(=O)N[C@@H](CO)C(=O)N[C@@H](CCCCN)C(=O)N[C@@H](CC(C)C)C(=O)N[C@@]1(C)CCCC=CCCC[C@@](C)(C(=O)N[C@@H](CCCCN)C(=O)N[C@@H](CC(N)=O)C(=O)N[C@@H](CC(C)C)C(=O)N[C@@H](CCCCN)C(=O)N[C@H](C(=O)N[C@@H](CO)C(=O)NCC(=O)N[C@@H](CC(C)C)C(=O)N[C@@H](CCCCN)C(=O)NCC(N)=O)[C@@H](C)CC)NC(=O)[C@H](CCCCN)NC(=O)[C@H](CCCCN)NC(=O)CNC1=O [compound 41] (H-GIFSKL[S5]GKK[S5]KNLKISGLKG-NH2; staple 7-11) |  |  |  |  |  |  |  | 172 µg/mL (≈ 75.9 µM) | 147 µg/mL (≈ 64.9 µM)
CC[C@H](C)[C@@H]1NC(=O)[C@@](C)(NC(=O)[C@H](CCCCN)NC(=O)[C@H](CCCCN)NC(=O)CNC(=O)[C@H](CCCCN)NC(=O)[C@]2(C)CCCC=CCCC[C@](C)(NC(=O)CN)C(=O)N[C@@H](Cc3ccccc3)C(=O)N[C@@H](CO)C(=O)N[C@@H](CCCCN)C(=O)N2)CCCC=CCCC[C@@](C)(C(=O)N[C@@H](CCCCN)C(=O)NCC(N)=O)NC(=O)CNC(=O)[C@H](CO)NC1=O [compound 42] (H-G[S5]FSK[S5]KGKK[S5]ISG[S5]KG-NH2; staple 2-6, 11-15) |  |  |  |  |  |  |  | > 200 µg/mL | > 200 µg/mL
